Reference: patent US5545640A, “Protease inhibiting succinic acid derivatives” (Bio-Mega/Boehringer Ingeleheim Research Inc., priority 1995, dated 1996)

Experiments:
HIV protease = biological target: T1, HIV protease (Human immunodeficiency virus type 1 group M subtype B, UniProt P04585); test: biochemical; conditions: recombinant HIV protease; decapeptide substrate; HPLC assay; read-out: IC50 (concentration causing 50% inhibition of HIV protease)
T1 construct: an HIV-encoded enzyme known as HIV protease
Excerpt: The procedure is based on the capacity of the test compound to inhibit enzymatic cleavage by HIV protease of a decapeptide (the substrate) having an amino acid sequence which includes a known HIV protease cleavage site of a HIV polyprotein; see H. G. Krausslich et al., Proc. Natl. Acad. Sci. USA, 86, 807 (1989).
Anderson, S. Rakhit and C. Yoakim in the European patent application 443 560, published Aug. 28, 1991.

[1] = system: HIV (H9/HTLV-IIIB stock) in C8166 cells; test: Cell culture assay: inhibition of syncytia formation in HIV-infected C8166 cells (antiviral, anti-HIV effect); assay type: cell-based, HIV (HTLV-IIIB); human T4 cell line; conditions: Human immunodeficiency virus 1; C8166 cells; H9/HTLV-IIIB, 50 times TCID50; 72 h, 37°; read-out: EC50 (concentration causing 50% inhibition of syncytia formation)
Excerpt: Typical of such procedures are those described by S. Harada and N. Yamamoto, Jpn. J. Cancer Res. (Gann), 76, 432 (1985), and S. Harada et al., Science, 229, 563 (1985). An assay based on the latter procedures is described in the examples hereinafter.
In addition, Tables 1 to 8 list the results for exemplified compounds of formula 1 when assayed for antiviral (anti-HIV) effects according to the following protocol which is based on a cell culture assay previously described by Harada et al., supra. Transformed cells are used because of the rapidity with which HIV will replicate in the cells.
1. The test compound is dissolved in dimethylsulfoxide to a concentration of 5 mg/mL. The resultant solution .can be stored at 4° until use.
2. The resultant solution is diluted in RPMI 1640 (Gibco Laboratories, St. Lawrence, Mass., USA) to four times (4×) the final concentration which is to be tested. Once diluted in RPMI 1640, the solution is used in the cell culture assay within 4 h.
3. The latter solution (50 μL) is added to triplicate wells of a 96 well flat bottomed microtiter plate. RPMI (50 μL) also is added to control wells.
4. C8166 cells (5×10^4) in 50 μL of HEPES-buffered RPMI 1640 (pH=7.2), 10% heat inactivated fetal calf serum (FCS), […] gentamicin (complete media) are added to all wells.
5. Fifty times TCID50 of H9/HTLV-IIIB stock (stored in liquid nitrogen as cell culture supernatant in 50% FCS) in 100 μL of complete media is added to all wells. The infectious titer of the virus stocks is as previously determined by end point dilution on C8166 cells. The titer of stocks are stable for 6-12 months when stored at -193°.
6. Microtiter plates are then placed on level shelves of a 37°, 5% CO2 humidified incubator for 72 h.
7. Plates are then removed and centers of syncytia are counted in each well by low power phase contrast light microscopy. […] Control wells should have between 25 and 75 centers of syncytia per well.
8. Percent inhibition of syncytia formation is calculated by the formula: [formula]
The concentration of the test compound which causes a 50% inhibition of syncytia formation, i.e. the EC50, is determined by using the technique of serial dilution of the working solution at step 3 and graphically plotting the observed percent inhibition of syncytia formation against the various concentrations of the test compound.
In the following tables, assay results are listed for the exemplified compounds from the aforementioned recombinant HIV protease HPLC assay under the heading IC50 (nM) and from the cell culture assay under the heading EC50 (nM). Note that for some of the compounds listed in tables, the EC50 's have not been determined (ND).

Row | IC50 (HIV protease) [nM] | EC50 [1] [nM] | Structure (SMILES)
1 | 3 | 360 | Cc1cccc(C)c1NC(=O)C[C@@H](C(=O)NC[C@@H](O)[C@H](Cc1ccccc1)NC(=O)OCc1ccccc1)C(C)(C)C [Entry 72]
2 | 15 | 270 | CCC(CC)NC(=O)C[C@@H](C(=O)NC[C@@H](O)[C@H](Cc1ccccc1)NC(=O)[C@H](CC(N)=O)NC(=O)c1cccc2cccnc12)C(C)(C)C [Entry 10]
3 | 5 | 1100 | CCC(CC)NC(=O)C[C@@H](C(=O)NC[C@@H](O)[C@H](Cc1ccccc1)NC(=O)[C@H](CC(N)=O)NC(=O)CCCc1ccccc1)C(C)(C)C [Entry 21]
4 | 3 | 34 | CCC(CC)NC(=O)C[C@@H](C(=O)NC[C@@H](O)[C@H](Cc1ccccc1)NC(=O)[C@H](CC#N)NC(=O)c1ccc2ccccc2n1)C(C)(C)C [Entry 37]
5 | 4 | 52 | CCC(CC)NC(=O)C[C@@H](C(=O)NC[C@@H](O)[C@H](Cc1ccccc1)NC(=O)[C@@H](NC(=O)c1ccc2ccccc2n1)[C@@H](C)O)C(C)(C)C [Entry 23, N^1-(1-Ethylpropyl)-N^4 -{3(S)-{[N-(2-quinolylcarbonyl)threonyl]amino}-2(R)-hydroxy-4-phenylbutyl}-3(R)-tert-butylbutanediamide]
